In patent publication US20050025847A1, “Microbicidal compositions and method of use” (Program for Appropriate Technology in Health, priority 2003, published 2005):

Tests used:
[1] = test system: Microsporum canis; details: isolates of Microsporum canis; cited from earlier work
[2] = test system: Trichophyton mentagrophytes; details: isolates of Trichophyton mentagrophytes; cited from earlier work
[3] = test system: Trichophyton rubrum; details: isolates of Trichophyton rubrum; cited from earlier work
[4] = test system: Candida albicans; details: isolates of Candida albicans; cited from earlier work
[5] = test system: Epidermophyton floccosum; details: isolates of Epidermophyton floccosum; cited from earlier work
[6] = oral and dermal toxicity, genotoxicity, reproductive/developmental toxicity, sensitization and photosensitization studies; details: oral, dermal, sensitization, photosensitization studies
Description: (§1) A preferred microbicidal agent according to the present invention is bisabolol. In particular, alpha-bisabolol (levomenol) is a preferred microbicidal agent. Bisabolol is a naturally occurring unsaturated monocyclic sesquiterpene alcohol. Alpha-bisabolol is used in a wide range or cosmetic formulations as a skin conditioning agent at concentrations ranging from approximately 0.001% in lipstick to approximately 1% in underarm deodorants. Bisabolol has been used for cosmetic purposes in India and worldwide in skin, oropharyngeal, nasal and vaginal products such as douches up to concentrations of approximately 5%, but has not been used in the prevention or treatment of STIs and/or common vaginal diseases. Bisabolol is the main active principle of chamomile (Matricaria chamomilla) and up to approximately 50% of the essential oil of chamomile consists of alpha-bisabolol.

[7] = test system: lactobacilli; test: effect on lactobacilli; assay type: cell-based
Description: as §1

[8] = test system: HIV; test: inhibition of HIV infectivity; assay type: cell-based

effect on lactobacilli ([7]; concentration 2 mg/ml)	effect on lactobacilli ([7]; concentration 10 mg/ml)	IC50, inhibition of HIV infectivity ([8]; mixed with the virus and cells)	IC50, inhibition of HIV infectivity ([8]; mixed with the virus for 5 minutes before washing)	Compound	fungicidal activity in vitro [1]	fungicidal activity in vitro [2]	fungicidal activity in vitro [3]	fungicidal activity in vitro [4]	fungicidal activity in vitro [5]	toxicity [6]	anti-HIV activity [8]	inactivation of HIV ([8]; washed away after short-term treatment)
				Cc1cc(C2CCCCC2)n(O)c(=O)c1.NCCO [Ciclopirox Olamine, 6-Cyclohexyl-1-hydroxy-4-methyl-2-(1H)-pyridone ethanolamine salt]	exhibits fungicidal activity	exhibits fungicidal activity	exhibits fungicidal activity	exhibits fungicidal activity	exhibits fungicidal activity			
no effect	no effect	0.6 µg/mL	1 µg/mL	CC(C)=CCCC(C)(O)C1CC=C(C)CC1 (stereo not drawn) [Bisabolol, 3-Cyclohexene-1-methanol, alpha,4-dimethyl-alpha-(4-methyl-3-pentenyl)]						little toxicity	very high anti-HIV activity	inactivates HIV
